# Measurements from patent publication US9394549B2, “Method for producing useful chemical substance from terephthalic acid potassium salt” (GENARIS, INC., priority 2012, dated 2016).
# Like-named read-outs stand apart in the source and are kept apart here.
# Experiments:
# [1] = Solubility of terephthalic acid salts in water; assay type: physicochemical
# Procedure: 2.99 g (0.018 mol) of terephthalic acid (in a form of powder, manufactured by Sigma-Aldrich Japan; hereinafter, unless otherwise specified, reagents used were ones manufactured by Sigma-Aldrich Japan) and 0.036 mol of potassium hydroxide (in a form of granule) were put in a 50 mL-glass beaker. Distilled water was filled to obtain a volume of about 15 mL. The resulting mixture was covered with aluminum foil as a lid, heated at 50° C. for 60 minutes while stirred by a hot stirrer (manufactured by AS ONE Corporation), and allowed to cool to 30° C. After stirring at 30° C. for 120 minutes or more and confirming the precipitate remained in the solution, 1 mL of the solution was collected and subjected to centrifugation using a high speed micro centrifuge (manufactured by Tomy Seiko Co., Ltd.) (30° C., 14000 rpm (17800 g), 30 seconds) to collect the supernatant.
# The concentration of terephthalic acid in this supernatant was measured and regarded as the solubility of dipotassium terephthalate. With regard to the measurement of the concentration of terephthalic acid, the sample was diluted 16,000-fold with 2.5% aqueous acetonitrile solution and analyzed in separation conditions of Table 1 using high performance liquid chromatography (Waters Corporation, LCT Premier XE). Thereafter, the concentration was calculated on the basis of a ratio of the area of terephthalic acid peaks using aqueous terephthalic acid solution with a known concentration as a control.
# [2] = tested on: Escherichia coli K-12 M7032 strain; test: Decomposition of ethylene glycol during production of TPA-DHD, control strain; assay type: cell-based; details: raw material dipotassium terephthalate with ethylene glycol, final concentration 72 mM
# Procedure: Subsequently, in the same manner as described in Example 1, Escherichia coli M7032 (pUXPEaLT_tpaA_tpaK_Pm_fucO_I7L_aldA) strain and Escherichia coli K-12 M7032 strain which serves as a control were cultured in a mini jar fermentor. Concurrently with administration of dipotassium terephthalate which serves as a raw material, 0.278 ml (final concentration 72 mM) of ethylene glycol was placed.
# Sampling was carried out 48 hours after the start of main culture. Each of the samples was subjected to analysis in conditions shown in Table 1 by an LC-TOF type mass spectrometer (Waters Corporation, LCT Premier XE). Identification of terephthalic acid was carried out with a combination of retention time of high performance liquid chromatography and an accurate mass value from the mass spectrometer, comparing to a standard sample of terephthalic acid. Among substances appeared as terephthalic acid decreased, TPA-DHD was identified on the basis of a predicted accurate mass value of TPA-DID. Further, quantification of TPA-DHD was carried out on the basis of a calibration curve prepared from an amount of terephthalic acid decreased and an increase in the peak area of TPA-DHD. […]
# [3] = tested on: Escherichia coli M7032 (pUXPEaLT_tpaA_tpaK_Pm_fucO_I7L_aldA) strain; test: Decomposition of ethylene glycol during production of TPA-DHD; assay type: cell-based; details: raw material dipotassium terephthalate with ethylene glycol, final concentration 72 mM
smiles,measurement,setting,value
"N.O=C([O-])c1ccc(C(=O)O)cc1.[Na+] [1-sodium 4-ammonium terephthalate, reference compound]",solubility,[1],612 mM
same,solubility in water at 30° C.,[1],about 0.61 M
"N.N.O=C(O)c1ccc(C(=O)O)cc1 [Diammonium terephthalate, diammonium terephthalate, reference compound]",solubility,"[1]; 30 °C, water, thermodynamic from solid, in water at 30° C., rounded values of the summary, read-out: solubility in water at 30° C.",~510 mM
same,solubility,"[1]; 30 °C, water, thermodynamic from solid, in water, 30° C., read-out: Solubility",512 mM
"O=C(O)C1=CC(O)C(O)(C(=O)O)C=C1 (stereo not drawn) [TPA-DHD, terephthalate 1,2-cis-dihydrodiol]",amount of TPA-DHD produced 48 hours after the start of the culture,[2],11.1 g/L
same,amount of TPA-DHD produced 48 hours after the start of the culture,[3],10.5 g/L
